Species: Rattus norvegicus
Assay: Open TG-GATES - Regimen: Daily Repeat
Type: toxicity, organism-based, Sprague-Dawley
Parameters: regimen Daily Repeat, gender Male, age 6 weeks
Conditions: in vivo, po, 2000 mg/kg, route gavage, dose level High; for APTT / Bas / Eos / Fbg / Hb / Ht / Lym / MCH / MCHC / MCV / Mono / Neu / PT / Plat / RBC / Ret / WBC: tissue Blood; for KIDNEY_L / KIDNEY_R / KIDNEY_TOTAL: tissue Kidney; for LIVER: tissue Liver; for A/G / ALP / ALT / AST / BUN / CRE / Ca / Cl / DBIL / GLC / IP / K / LDH / Na / PL / RALB / TBIL / TC / TG / TP / gamma-GTP: tissue Plasma

## COc1ccc(O)c(C(C)(C)C)c1.COc1ccc(O)cc1C(C)(C)C [BUTYLATED HYDROXYANISOLE]
72 h, time 3 day
  TERMINAL_BW: 199.9 g
  APTT: 18.9 s
  Bas: 0.2%
  Eos: 0.7%
  Fbg: 288 mg/dL
  Hb: 13.9 g/dL
  Ht: 40.3%
  Lym: 78.1%
  MCH: 20.7 pg
  MCHC: 34.6%
  MCV: 59.8 fL
  Mono: 2.8%
  Neu: 17.5%
  PT: 11.8 s
  Plat: 152.4 x10_4/uL
  RBC: 673.2 x10_4/ul
  Ret: 2.1%
  WBC: 93.2 x10_2/uL
  KIDNEY_L: 0.9 g
  KIDNEY_R: 0.9 g
  KIDNEY_TOTAL: 1.8 g
  LIVER: 12.3 g
  A/G: 0.8
  ALP: 1414.4 IU/L
  ALT: 69.4 IU/L
  AST: 76.4 IU/L
  BUN: 14.2 mg/dL
  CRE: 0.2 mg/dL
  Ca: 10.9 mg/dL
  Cl: 108.2 meq/L
  DBIL: 0.036 mg/dL
  GLC: 152 mg/dL
  IP: 5.5 mg/dL
  K: 3.6 meq/L
  LDH: 70.2 IU/L
  Na: 143 meq/L
  PL: 197 mg/dL
  RALB: 2.5 g/dL
  TBIL: 0.09 mg/dL
  TC: 113 mg/dL
  TG: 106.4 mg/dL
  TP: 5.5 g/dL
  gamma-GTP: 2.8 IU/L
[…], time 7 day
  TERMINAL_BW: 225.2 g
  APTT: 15.8 s
  Bas: 0.3%
  Eos: 0.5%
  Fbg: 316.8 mg/dL
  Hb: 13.2 g/dL
  Ht: 38.2%
  Lym: 76.9%
  MCH: 20.2 pg
  MCHC: 34.6%
  MCV: 58.3 fL
  Mono: 3.4%
  Neu: 18.2%
  PT: 11.6 s
  Plat: 176.3 x10_4/uL
  RBC: 655.8 x10_4/ul
  Ret: 4.1%
  WBC: 146.4 x10_2/uL
  KIDNEY_L: 0.9 g
  KIDNEY_R: 0.9 g
  KIDNEY_TOTAL: 1.8 g
  LIVER: 12.6 g
  A/G: 0.8
  ALP: 797 IU/L
  ALT: 44.8 IU/L
  AST: 61.2 IU/L
  BUN: 17 mg/dL
  CRE: 0.2 mg/dL
  Ca: 11.5 mg/dL
  Cl: 105.4 meq/L
  DBIL: 0.032 mg/dL
  GLC: 157 mg/dL
  IP: 7.7 mg/dL
  K: 3.4 meq/L
  LDH: 62.8 IU/L
  Na: 143.8 meq/L
  PL: 180 mg/dL
  RALB: 2.7 g/dL
  TBIL: 0.066 mg/dL
  TC: 102.6 mg/dL
  TG: 97.2 mg/dL
  TP: 6.1 g/dL
  gamma-GTP: 2.4 IU/L
[…], time 14 day
  TERMINAL_BW: 262.1 g
  APTT: 18.4 s
  Bas: 0.2%
  Eos: 0.6%
  Fbg: 295.6 mg/dL
  Hb: 13.6 g/dL
  Ht: 39.4%
  Lym: 71.9%
  MCH: 19.7 pg
  MCHC: 34.6%
  MCV: 56.9 fL
  Mono: 2.6%
  Neu: 23.8%
  PT: 12.1 s
  Plat: 130.9 x10_4/uL
  RBC: 693.8 x10_4/ul
  Ret: 3.8%
  WBC: 103.7 x10_2/uL
  KIDNEY_L: 1 g
  KIDNEY_R: 1 g
  KIDNEY_TOTAL: 2 g
  LIVER: 15.3 g
  A/G: 0.8
  ALP: 1011.2 IU/L
  ALT: 39.4 IU/L
  AST: 59.2 IU/L
  BUN: 18.4 mg/dL
  CRE: 0.2 mg/dL
  Ca: 11.2 mg/dL
  Cl: 105.6 meq/L
  DBIL: 0.026 mg/dL
  GLC: 159.8 mg/dL
  IP: 6.2 mg/dL
  K: 3.4 meq/L
  LDH: 43.6 IU/L
  Na: 144.8 meq/L
  PL: 204.4 mg/dL
  RALB: 2.8 g/dL
  TBIL: 0.062 mg/dL
  TC: 108 mg/dL
  TG: 153.6 mg/dL
  TP: 6.2 g/dL
  gamma-GTP: 3 IU/L
[…], time 28 day
  TERMINAL_BW: 342.7 g
  APTT: 22.8 s
  Bas: 0.4%
  Eos: 0.7%
  Fbg: 317.2 mg/dL
  Hb: 14.7 g/dL
  Ht: 41.8%
  Lym: 75.1%
  MCH: 19 pg
  MCHC: 35.3%
  MCV: 53.8 fL
  Mono: 2.1%
  Neu: 21%
  PT: 12.5 s
  Plat: 129.2 x10_4/uL
  RBC: 778.2 x10_4/ul
  Ret: 2.2%
  WBC: 110.2 x10_2/uL
  KIDNEY_L: 1.2 g
  KIDNEY_R: 1.2 g
  KIDNEY_TOTAL: 2.4 g
  LIVER: 19.6 g
  A/G: 0.7
  ALP: 696 IU/L
  ALT: 36.6 IU/L
  AST: 58 IU/L
  BUN: 19.8 mg/dL
  CRE: 0.2 mg/dL
  Ca: 11.3 mg/dL
  Cl: 104.8 meq/L
  DBIL: 0.022 mg/dL
  GLC: 174.8 mg/dL
  IP: 5.6 mg/dL
  K: 3.5 meq/L
  LDH: 58.2 IU/L
  Na: 145.8 meq/L
  PL: 198.8 mg/dL
  RALB: 2.8 g/dL
  TBIL: 0.068 mg/dL
  TC: 109 mg/dL
  TG: 121 mg/dL
  TP: 6.6 g/dL
  gamma-GTP: 2.6 IU/L

— ChEMBL document CHEMBL3885861, “Open TG-GATES”
